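Results reflect a 48-hour exposure of cells in 96-well plates to compound at five concentrations. Here, GI50 denotes the concentration required for 50% inhibition of growth. The concentration for full growth arrest is given as TGI.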
Experiments:
Experiment in all cases: NCI anticancer screen, dose series, 48 h
SNB-19 CNS = test system: SNB-19 CNS
A498 renal = test system: A498 renal
HCT-116 colon = test system: HCT-116 colon
NCI-H226 lung = test system: NCI-H226 lung
A549 NSCLC = test system: A549 NSCLC
MCF7 breast = test system: MCF7 breast
OVCAR-8 ovarian = test system: OVCAR-8 ovarian
UO-31 renal = test system: UO-31 renal
MALME-3M melanoma = test system: MALME-3M melanoma
SR leukemia = test system: SR leukemia

With `COc1ccc(OC)c(N2CC(O)=C(c3nc4ccccc4s3)C2=N)c1` as the compound, how does the GI50 (SNB-19 CNS) read?
Its GI50 is over 100 µM.

And the TGI (SNB-19 CNS)?
The TGI was over 100 µM.

What about the GI50 (A498 renal) of the same compound?
The GI50 was 18.9 µM.

And the TGI (A498 renal)?
The TGI was 59.6 µM.

What about the GI50 (HCT-116 colon) of the same compound?
Its GI50 is 57.5 µM.

What about the TGI (HCT-116 colon) of the same compound?
The TGI was over 100 µM.

What about the GI50 (NCI-H226 lung) of the same compound?
The GI50 was 56.9 µM.

And the TGI (NCI-H226 lung)?
Its TGI is over 100 µM.

What about the GI50 (A549 NSCLC) of the same compound?
Its GI50 is 71.2 µM.

And the TGI (A549 NSCLC)?
Its TGI is over 100 µM.

And the GI50 (MCF7 breast)?
The GI50 was 60.8 µM.

And the TGI (MCF7 breast)?
The TGI was over 100 µM.

And the GI50 (OVCAR-8 ovarian)?
Its GI50 is 98.7 µM.

What about the TGI (OVCAR-8 ovarian) of the same compound?
The TGI was over 100 µM.

What about the GI50 (UO-31 renal) of the same compound?
Its GI50 is 36.2 µM.

And the TGI (UO-31 renal)?
Its TGI is over 100 µM.

And the GI50 (MALME-3M melanoma)?
Its GI50 is 16.4 µM.

What about the TGI (MALME-3M melanoma) of the same compound?
The TGI was 82 µM.

And the GI50 (SR leukemia)?
Its GI50 is 6.77 µM.

And the TGI (SR leukemia)?
Its TGI is over 100 µM.

`CCCN(CCC)c1ccc(/C=N/NC(=O)c2cccnc2)c(C)c1` was tested. Which GI50 (SNB-19 CNS) did it give?
Its GI50 is 16.1 µM.

And the TGI (SNB-19 CNS)?
The TGI was 34.1 µM.

What about the GI50 (A498 renal) of the same compound?
Its GI50 is 1.06 µM.

What about the TGI (A498 renal) of the same compound?
The TGI was 3.54 µM.

And the GI50 (HCT-116 colon)?
Its GI50 is 13.8 µM.

And the TGI (HCT-116 colon)?
The TGI was 29.3 µM.

And the GI50 (NCI-H226 lung)?
Its GI50 is 12 µM.

And the TGI (NCI-H226 lung)?
Its TGI is 26.3 µM.

What about the GI50 (A549 NSCLC) of the same compound?
Its GI50 is 15.7 µM.

And the TGI (A549 NSCLC)?
The TGI was 36.8 µM.

What about the GI50 (MCF7 breast) of the same compound?
The GI50 was 17.7 µM.

What about the TGI (MCF7 breast) of the same compound?
The TGI was 36.8 µM.

What about the GI50 (OVCAR-8 ovarian) of the same compound?
The GI50 was 18 µM.

And the TGI (OVCAR-8 ovarian)?
The TGI was 44.1 µM.

What about the GI50 (UO-31 renal) of the same compound?
The GI50 was 15.6 µM.

What about the TGI (UO-31 renal) of the same compound?
The TGI was 38.1 µM.

What about the GI50 (MALME-3M melanoma) of the same compound?
Its GI50 is 13 µM.

What about the TGI (MALME-3M melanoma) of the same compound?
Its TGI is 28.2 µM.

And the GI50 (SR leukemia)?
Its GI50 is 8.15 µM.

What about the TGI (SR leukemia) of the same compound?
The TGI was 41.7 µM.

How did the GI50 (SNB-19 CNS) turn out when `Oc1ccc(N=Nc2ccc(Br)cc2)c(O)c1` was run?
The GI50 was 4 µM.

What about the TGI (SNB-19 CNS) of the same compound?
The TGI was 68.8 µM.

And the GI50 (A498 renal)?
The GI50 was 3.26 µM.

What about the TGI (A498 renal) of the same compound?
Its TGI is 20.7 µM.

What about the GI50 (HCT-116 colon) of the same compound?
The GI50 was 3.25 µM.

And the TGI (HCT-116 colon)?
Its TGI is 14.1 µM.

And the GI50 (NCI-H226 lung)?
The GI50 was 7.91 µM.

What about the TGI (NCI-H226 lung) of the same compound?
The TGI was 42.9 µM.

What about the GI50 (A549 NSCLC) of the same compound?
The GI50 was 3.19 µM.

What about the TGI (A549 NSCLC) of the same compound?
The TGI was 17.9 µM.

What about the GI50 (MCF7 breast) of the same compound?
The GI50 was 2.2 µM.

What about the TGI (MCF7 breast) of the same compound?
The TGI was 54.3 µM.

And the GI50 (OVCAR-8 ovarian)?
Its GI50 is 3.69 µM.

What about the TGI (OVCAR-8 ovarian) of the same compound?
The TGI was 21.2 µM.

What about the GI50 (UO-31 renal) of the same compound?
The GI50 was 2.27 µM.

What about the TGI (UO-31 renal) of the same compound?
Its TGI is 15.6 µM.

What about the GI50 (MALME-3M melanoma) of the same compound?
The GI50 was 3.61 µM.

And the TGI (MALME-3M melanoma)?
Its TGI is 20.7 µM.

What about the GI50 (SR leukemia) of the same compound?
Its GI50 is 0.337 µM.

What about the TGI (SR leukemia) of the same compound?
The TGI was 2.54 µM.

What does the source list for `CCOC(=O)c1ccc(N2NC(=O)/C(=C/c3ccc([N+](=O)[O-])o3)C2=O)cc1`?
GI50 (SNB-19 CNS): > 44.8 µM; TGI (SNB-19 CNS): > 72.2 µM; GI50 (A498 renal): > 37 µM; TGI (A498 renal): > 51.6 µM; GI50 (HCT-116 colon): 8.37 µM; TGI (HCT-116 colon): 21.4 µM; GI50 (NCI-H226 lung): > 41 µM; TGI (NCI-H226 lung): > 56.5 µM; GI50 (A549 NSCLC): > 44.7 µM; TGI (A549 NSCLC): > 60.6 µM; GI50 (MCF7 breast): 17.4 µM; TGI (MCF7 breast): 35.9 µM; GI50 (OVCAR-8 ovarian): 27.8 µM; TGI (OVCAR-8 ovarian): > 64.2 µM; GI50 (UO-31 renal): 5.64 µM; TGI (UO-31 renal): 13.8 µM; GI50 (MALME-3M melanoma): 15.6 µM; TGI (MALME-3M melanoma): 35.1 µM; GI50 (SR leukemia): 10.1 µM; TGI (SR leukemia): 57.8 µM

Which results are given for `CC(C)(C)c1cc(C[P+](c2ccccc2)(c2ccccc2)c2ccccc2)cc(C(C)(C)C)c1O`?
GI50 (SNB-19 CNS): 0.354 µM; TGI (SNB-19 CNS): 13.8 µM; GI50 (A498 renal): 0.451 µM; TGI (A498 renal): 3.69 µM; GI50 (HCT-116 colon): 0.275 µM; TGI (HCT-116 colon): 10.2 µM; GI50 (NCI-H226 lung): 1.45 µM; TGI (NCI-H226 lung): 18.3 µM; GI50 (A549 NSCLC): 0.392 µM; TGI (A549 NSCLC): 11 µM; GI50 (MCF7 breast): 0.27 µM; TGI (MCF7 breast): 4.04 µM; GI50 (OVCAR-8 ovarian): 0.386 µM; TGI (OVCAR-8 ovarian): 5.56 µM; GI50 (UO-31 renal): 2.28 µM; TGI (UO-31 renal): 7.14 µM; GI50 (MALME-3M melanoma): 0.291 µM; TGI (MALME-3M melanoma): 0.947 µM; GI50 (SR leukemia): 0.403 µM; TGI (SR leukemia): 2.5 µM

For `CCc1cc2c(c(OCC(F)(F)F)c(C(=O)NC3CCN(C(=O)CO)CC3)n2C)c(=O)n1CC(=O)c1ccccc1`, which GI50 (SNB-19 CNS) is on record?
The GI50 was over 100 µM.

And the TGI (SNB-19 CNS)?
The TGI was over 100 µM.

And the GI50 (A498 renal)?
Its GI50 is 99.3 µM.

And the TGI (A498 renal)?
Its TGI is over 100 µM.

What about the GI50 (HCT-116 colon) of the same compound?
The GI50 was 63.5 µM.

And the TGI (HCT-116 colon)?
The TGI was over 100 µM.

And the GI50 (NCI-H226 lung)?
Its GI50 is 97 µM.

And the TGI (NCI-H226 lung)?
The TGI was over 100 µM.

And the GI50 (A549 NSCLC)?
The GI50 was 92.2 µM.

What about the TGI (A549 NSCLC) of the same compound?
The TGI was over 100 µM.

What about the GI50 (MCF7 breast) of the same compound?
Its GI50 is 44 µM.

And the TGI (MCF7 breast)?
The TGI was over 100 µM.

And the GI50 (OVCAR-8 ovarian)?
Its GI50 is 45.5 µM.

What about the TGI (OVCAR-8 ovarian) of the same compound?
The TGI was over 100 µM.

And the GI50 (UO-31 renal)?
Its GI50 is 45.3 µM.

And the TGI (UO-31 renal)?
The TGI was over 100 µM.

And the GI50 (MALME-3M melanoma)?
Its GI50 is over 100 µM.

And the TGI (MALME-3M melanoma)?
The TGI was over 100 µM.

What about the GI50 (SR leukemia) of the same compound?
The GI50 was 50.7 µM.

What about the TGI (SR leukemia) of the same compound?
Its TGI is over 100 µM.

With `Nc1nc(-c2cccnc2)cc(-c2cc(-c3cccnc3)nc(N)n2)n1` as the compound, how does the TGI (SNB-19 CNS) read?
Its TGI is over 100 µM.

And the TGI (A498 renal)?
The TGI was over 100 µM.

What about the TGI (HCT-116 colon) of the same compound?
The TGI was over 100 µM.

And the TGI (NCI-H226 lung)?
The TGI was over 100 µM.

And the TGI (A549 NSCLC)?
Its TGI is over 100 µM.

And the TGI (MCF7 breast)?
The TGI was over 100 µM.

What about the TGI (OVCAR-8 ovarian) of the same compound?
The TGI was over 100 µM.

What about the TGI (UO-31 renal) of the same compound?
The TGI was over 100 µM.

And the TGI (MALME-3M melanoma)?
The TGI was over 100 µM.

And the TGI (SR leukemia)?
Its TGI is over 100 µM.

From PubChem BioAssay (NCI)
